Test results taken from article PMC5618191 (Toxins, 2017).
Read-outs that look alike come from different tables or passages of the source.

Legend:
[1] = test system: SW620 colon metastasis cells; experiment: Cell viability assay (MTT, 72 h); assay type: cell-based, human
Procedure: (§1) For the cell lines KB-3-1 and SW480 2 × 10^3 cells, for NIH/3T3, CT-26, HaCaT, and GH354 cells 3 × 10^3 cells and for ME-180 and SW620 cells 4 × 10^3 cells were seeded into 96-well pates and incubated at 37 °C (5% CO2) overnight. […] For higher cell confluency, NIH/3T3, CT-26, HaCaT, KB-3-1, and SW480 cells were grown to a cell density of approximately 50–60% before treatment. […] The percentage of viable cells was detected after incubation with 3-(4,5-dimethylthiazol-2-yl)-2,5-diphenyltetrazolium bromide (MTT) at 37 °C for 1–4 h, depending on the cell line, according to the user manual (EZ4U, Biomedica, Vienna, Austria). […] All experiments were conducted using full-growth media with 10% FBS in triplicate and repeated three times. The cell confluency was analyzed by Image J 1.50i (NIH, New York, NY, USA).

[2] = test system: SW480 colorectal adenocarcinoma cells; experiment: Cell viability assay (MTT, 72 h); assay type: cell-based, human
Procedure: as §1

[3] = test system: HaCaT non-malignant keratinocytes; experiment: Cell viability assay (MTT, 72 h); assay type: cell-based, human
Procedure: as §1

[4] = test system: ME-180 cervix metastasis cells; experiment: Cell viability assay (MTT, 72 h); assay type: cell-based, human; details: ME-180, sparse (5–10% confluency)
Procedure: as §1

[5] = test system: KB-3-1-derived tumor xenografts; experiment: KB-3-1 xenograft mouse model; assay type: in vivo, CB-17/SCID mice
Procedure: (§2) For the allograft experiment, 4 × 10^5 CT-26 cells were resuspended in 50 µL RPMI medium and injected subcutaneously into the right flank of eight, 6–8 weeks old, male BALB/c mice that were obtained from Harlan Laboratories (San Pietro al Natisone, Italy). Likewise, in the xenograft experiment, 1 × 10^6 KB-3-1 cells in 50 µL RPMI medium were injected subcutaneously into the right flank of eight, 6–8 weeks old, male CB-17/IcrHanHsd-Prkdc severe combined immunodeficiency (SCID) mice. Of each group, four animals were randomly assigned to the control or to the treatment group. […] All animals were kept under pathogen-free conditions and all procedures were performed in a laminar flow hood. Effects of the treatment were assessed by daily recording of tumor size with a microcaliper and parameters indicating the animals’ overall health condition (e.g., body weight, fatigue, grooming, ragged coat, food and fluid consumption). Tumor volumes (mm^3) were calculated using the formula: (length × width^2)/2. […] The tumor mass was weighed and organs and tissues for immunohistochemical experiments were fixed in 4% formalin/PBS (Roti®-Histofix 4%, Roth, Karlsruhe, Germany) or shock-frozen in liquid nitrogen and stored at −80 °C until the samples were prepared for LC-MS/MS analysis. The experiments were approved by the ethics committee of the Austrian Federal Ministry of Science, Research, and Economy (BMWF-66.009/0084-II/3b/2013, date of approval: 5 September 2013) and performed in line with the Arrive guidelines for animal care and protection and with guidelines from the Austrian Animal Science Association and from the Federation of European Laboratory Animal Science Associations (FELASA).
(§3) From each mouse from both the control (n = 4) and the treatment group (n = 4), tissue samples were formalin-fixed, paraffin-embedded and used to prepare serial 3 µm sections. Then, slices were deparaffinized and rehydrated. To evaluate the percentages of interphase/resting, mitotic and dead (apoptotic/necrotic) cell fractions in tumor specimens, sections were stained with hematoxylin and eosin (H/E) by means of standard protocols. Numbers of the three cell fractions were analyzed in a blinded setup in at least four images of H/E-stained tumor sections, taken under a 40 × objective microscope lens. In addition, for the quantification of areas of dead tumor tissue in whole tumor sections, the H/E-stained slides were scanned with a Pannoramic MIDI automated slide scanner (3[…], Budapest, Hungary) and evaluated using Definiens’ TissueStudio® 4.0 (Definiens®, Munich, Germany) software and Pannoramic Viewer (3[…]) software. To evaluate the fraction of apoptotic cells in tumor sections a terminal deoxynucleotidyl transferase (TdT) deoxyuridine triphosphate (dUTP) nick end labeling (TUNEL) assay was performed applying the In Situ Cell Death Kit TMR (red) (Roche Diagnostics, Mannheim, Germany) according to the manufacturer’s protocol. Afterwards, slides were covered with Vectashield anti-fade mounting medium with DAPI (H-1200, Vector Laboratories, Burlingame, CA, USA). Slides were protected from light until they were scanned with a Pannoramic MIDI automated slide scanner (3[…]) and analyzed via digital image analysis software (Definiens’ TissueStudio® 4.0, Definiens®). In order to visualize the proliferative cell fraction (cells in the interphase or M-phase) of tumors, KB-3-1 tumor sections were stained with the Ki-67 (clone MiB-1) antibody from DAKO (1:100; Glostrup, Denmark) and for CT-26 tumor sections with Ki-67 (1:100; D3B5, rabbit, Cell Signaling, Danvers, USA). The primary antibody was incubated for 30 min at room temperature in a humid chamber and after rinsing the slides for 3 min in PBS + 0.1% Tween, the UltraVision LP detection system was applied according to the manufacturer’s instructions (Thermo Fisher Scientific, Massachusetts, MA, USA). Sections were counterstained with hematoxylin. […]

[6] = test system: CT-26-derived tumor allografts; experiment: CT-26 allograft mouse model; assay type: in vivo, BALB/c mice
Procedure: as §2, §3

[7] = SW620, sparse (5–10% confluency), 72 h
[8] = SW480, sparse (5–10% confluency)

## beauvericin
[1]; [7]
  Mean IC25 ± SD: 0.3 ± 0.02 µM
  Mean IC75 ± SD: 1.9 ± 0.2 µM
[1]; SW620, sparse (5–10% confluency), 72 h, read-out: Mean IC50 ± SD
  IC50: 0.7 ± 0.1 µM
[1]; sparse conditions
  IC50 of SW620 lower as compared to SW480: 4.7 fold
  IC50 of SW620 lower than normal HaCaT cells: 5.6 fold
[2]; SW480, higher density (50–60% confluency), read-out: IC50 value
  IC50: 3.7 µM
[2]; [8]
  Mean IC25 ± SD: 2.1 ± 1.3 µM
  Mean IC75 ± SD: 4.2 ± 2.7 µM
[2]; SW480, sparse (5–10% confluency), read-out: Mean IC50 ± SD
  IC50: 3.3 ± 0.3 µM
[3]; higher density (50–60% confluency), read-out: IC50 value
  IC50: > 10 µM
[3]; sparse (5–10% confluency)
  Mean IC25 ± SD: 2.7 ± 0.2 µM
  Mean IC75 ± SD: 4.8 ± 0.7 µM
[3]; sparse (5–10% confluency), read-out: Mean IC50 ± SD
  IC50: 3.9 ± 0.4 µM
[4]
  Mean IC25 ± SD: 1.6 ± 0.8 µM
  Mean IC75 ± SD: 4.5 ± 1.2 µM
[4]; read-out: Mean IC50 ± SD
  IC50: 2.2 ± 0.7 µM
[5]; 5 mg/kg bw/day, day 16, vs control, p = 0.152
  Mean tumor weight lowered: 31.2%
[5]; 5 mg/kg bw/day, two cycles, day 16
  Reduction in tumor volume: 31.3%
[5]; treated vs control
  Percentages of apoptotic/necrotic cells within viable areas (H/E): almost no difference
[5]; treated vs control, p = 0.143
  Increase of TUNEL-positive cells: 1.5 fold
[5]; treated vs control, significant
  Increase of proportion of necrotic areas in H/E-stained whole tumor sections: 34.2%
[5]; treatment group, tumor sections, control 99.5 ± 0.6%
  Ki-67-positive cells: 98.8 ± 0.6%
[5]; treatment group, control 1.5 ± 0.4%
  Mitotic cells in H/E-stained tumor sections: 1.3 ± 0.3%
[6]; 5 mg/kg bw/day i.p., day 14, vs untreated, p = 0.057
  Average tumor weight reduction: 60%
[6]; 5 mg/kg bw/day i.p., two cycles, day 14, vs solvent control
  Reduction of mean tumor volume: 52.8%
[6]; H/E, treated vs control, p < 0.05
  Higher rate of scattered cells with signs of cell death (apoptosis or necrosis) in viable tumor regions: 22%
[6]; treated group, tumor sections, control 66.9 ± […]
  Ki-67-positive (proliferating) tumor cells: 81.6 ± 3.7%
[6]; treated group, control 0.4 ± 0.1%
  Mitotic cells in H/E-stained tumor sections: 0.3 ± 0.2%
[6]; treated versus untreated, p = 0.065
  Increase of average apoptosis rate (TUNEL) in viable tumor areas: 2.1 fold
[6]; treated vs control, p < 0.05
  Increase of necrotic areas in H/E-stained whole tumor sections: 2.2 fold
